US6706663B2, “Herbicidal 3-heterocyclic substituted benzisothiazole and benzisoxazole compounds” (Wyeth, priority 2000, dated 2004)

Key:
[1] = tested on: IPOHE (Ipomoea hederacea); test: Postemergence herbicidal evaluation; type: in vivo, (L.) Jacq.; details: postemergence
Method in brief: (§1)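 Seedlings grown about two weeks in flats, sprayed, then kept under standard greenhouse care. Rated visually 4–5 weeks after treatment on a 0–9 scale (stand, vigour, malformation, size, chlorosis, overall appearance) relative to untreated control; repeat tests averaged.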

ZEAMX (Corn, Field) = test: Preemergence herbicidal evaluation; type: in vivo, Zea mays, L.; details: preemergence, rated 4-5 weeks after treatment
[2] = tested on: GLXMAW (Soybean, Williams); test: Preemergence herbicidal evaluation; type: in vivo, Glycine max, (L.) Merr. cv Williams; details: preemergence, rated 4-5 weeks after treatment
SETVI (Setaria viridis) [3] = test: Postemergence herbicidal evaluation; type: in vivo, (L.) Beau; details: postemergence
Method in brief: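 Ratings use a 0-9 visual scale covering stand, vigor, malformation, size, chlorosis and appearance versus a control, scored 4-5 weeks post-spray. Roughly two-week-old seedlings received about 0.0040-1.000 kg/ha active, applied in 50/50 acetone/water with 0.5% TWEEN 20. Multiple tests per compound were averaged.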

[4] = tested on: MOOVA (Monochoria vaginalis); test: Flooded paddy, preemergence weed control; type: in vivo, Presl.; details: rated 3-4 weeks after treatment, 0-9 rating scale
Method in brief: (§2)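 Ratings of 0-9 reflect visual comparison with a control for stand, vigor, deformity, size, chlorosis and overall look. Propagules were placed in shallow silt loam (top 0.5 cm) under a continuous 1.5–3 cm flood and grown in the greenhouse.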

[5] = tested on: TRZAWR (Wheat, Winter, cv Riband); test: Postemergence herbicidal evaluation; type: in vivo, Triticum aestivum; details: postemergence
Method in brief: as §1

[6] = tested on: ECHORC (Echinochloa oryzoides); test: Flooded paddy, preemergence weed control; type: in vivo, Echinochloa oryzoides (Ard.) Fritsch.; details: rated 3-4 weeks after treatment, 0-9 rating scale
Method in brief: as §2

CYPIR (Cyperus iria) = test: Flooded paddy, preemergence weed control; type: in vivo; details: rated 3-4 weeks after treatment, 0-9 rating scale
Method in brief: as §2

[7] = tested on: ECHCG (Echinochloa crus-galli); test: Preemergence herbicidal evaluation; type: in vivo, (L.) Beau; details: preemergence, rated 4-5 weeks after treatment
Method in brief: (§3)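 Seeds planted in potting soil cups and sprayed preemergence with aqueous acetone compound solution. Greenhouse-grown; rated 4–5 weeks after treatment on a 0-9 visual scale (stand, vigor, malformation, size, chlorosis, appearance) versus control.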

SETVI (Setaria viridis) [8] = test: Preemergence herbicidal evaluation; type: in vivo, (L.) Beau; details: preemergence, rated 4-5 weeks after treatment
Method in brief: as §3

Compound | IPOHE herbicidal rating ([1]; rate 0.0320 kg/ha) | IPOHE herbicidal rating ([1]; rate 0.0620 kg/ha) | Preemergence herbicidal rating ZEAMX (ZEAMX (Corn, Field); rate 0.0620 kg/ha) | Preemergence herbicidal rating ZEAMX (ZEAMX (Corn, Field); rate 0.1250 kg/ha) | Preemergence herbicidal rating ZEAMX (ZEAMX (Corn, Field); rate 0.2500 kg/ha) | Preemergence herbicidal rating GLXMAW ([2]; rate 0.0620 kg/ha) | Preemergence herbicidal rating GLXMAW ([2]; rate 0.1250 kg/ha) | Preemergence herbicidal rating GLXMAW ([2]; rate 0.2500 kg/ha) | SETVI herbicidal rating (SETVI (Setaria viridis) [3]; rate 0.0320 kg/ha) | SETVI herbicidal rating (SETVI (Setaria viridis) [3]; rate 0.0620 kg/ha) | herbicidal rating, MOOVA ([4]; rate 0.1250 kg/ha) | TRZAWR herbicidal rating ([5]; rate 0.0320 kg/ha) | TRZAWR herbicidal rating ([5]; rate 0.0620 kg/ha) | herbicidal rating, ECHORC ([6]; rate 0.1250 kg/ha) | herbicidal rating, CYPIR (CYPIR (Cyperus iria); rate 0.1250 kg/ha) | Preemergence herbicidal rating ECHCG ([7]; rate 0.0620 kg/ha) | Preemergence herbicidal rating ECHCG ([7]; rate 0.1250 kg/ha) | Preemergence herbicidal rating ECHCG ([7]; rate 0.2500 kg/ha) | Preemergence herbicidal rating SETVI (SETVI (Setaria viridis) [8]; rate 0.0620 kg/ha) | Preemergence herbicidal rating SETVI (SETVI (Setaria viridis) [8]; rate 0.1250 kg/ha) | further results
Cn1c(C(F)(F)F)cc(=O)n(-c2ccc3snc(-c4ccoc4)c3c2)c1=O [Compound 83, 3-[3-(3-furyl)-1,2-benzisothiazol-5-yl]-1-methyl-6-(trifluoromethyl)uracil] | 2.0 | 4.0 | 3.0 | 5.0 | 6.0 | 0.0 | 2.5 | 6.0 | 3.0 | 4.0 | 9.0 | 2.0 | 3.0 | 7.0 | 3.0 | 2.0 | 6.5 | 9.0 | 6.0 | 9.0 | herbicidal rating, MOOVA ([4]; rate 0.0080 kg/ha): 0.0; herbicidal rating, MOOVA ([4]; rate 0.0320 kg/ha): 9.0; herbicidal rating, ECHORC ([6]; rate 0.0080 kg/ha): 0.0; herbicidal rating, ECHORC ([6]; rate 0.0320 kg/ha): 6.0; herbicidal rating, CYPIR (CYPIR (Cyperus iria); rate 0.0080 kg/ha): 0.0; herbicidal rating, CYPIR (CYPIR (Cyperus iria); rate 0.0320 kg/ha): 0.0; Preemergence herbicidal rating SETVI (SETVI (Setaria viridis) [8]; rate 0.2500 kg/ha): 9.0
Cn1c(C(F)(F)F)cc(=O)n(-c2ccc3snc(-c4sccc4CO)c3c2)c1=O [Compound 85, 3-[3-[3-(hydroxymethyl)-2-thienyl]-1,2-benzisothiazol-5-yl]-1-methyl-6-(trifluoromethyl)uracil] | 9.0 | 9.0 | 0.0 | 3.0 | 3.0 | 0.0 | 3.0 | 9.0 | 5.0 | 9.0 | 9.0 | 2.0 | 3.5 | 8.0 | 6.0 | 0.0 | 3.0 | 4.0 | 4.0 | 9.0 | MOOVA herbicidal rating ([4]; rate 0.0080 kg/ha): 9.0; MOOVA herbicidal rating ([4]; rate 0.0320 kg/ha): 7.0; ECHORC herbicidal rating ([6]; rate 0.0080 kg/ha): 0.0; ECHORC herbicidal rating ([6]; rate 0.0320 kg/ha): 5.0; CYPIR herbicidal rating (CYPIR (Cyperus iria); rate 0.0080 kg/ha): 0.0; CYPIR herbicidal rating (CYPIR (Cyperus iria); rate 0.0320 kg/ha): 0.0; Preemergence herbicidal rating SETVI (SETVI (Setaria viridis) [8]; rate 0.2500 kg/ha): 7.0
